Experimental data from ChEMBL document CHEMBL1141062, “Synthesis and evaluation of tricyclic pyrrolopyrimidinones as dipeptide mimetics: inhibition of interleukin-1beta-converting enzyme” (Bioorg Med Chem Lett, 2005).

Tests used:
[1] = test system: THP-1; experiment: Inhibitory concentration against IL-1b production in THP-1 cells; assay type: functional, cell-based; details: Homo sapiens
[2] = target: T1, Caspase-1 (Homo sapiens, UniProt P29466); experiment: Inhibitory activity towards CASP1 using fluorogenic substrates following an incubation for over 30 min at 37 degree C
T1 sequence (P29466 whole entry): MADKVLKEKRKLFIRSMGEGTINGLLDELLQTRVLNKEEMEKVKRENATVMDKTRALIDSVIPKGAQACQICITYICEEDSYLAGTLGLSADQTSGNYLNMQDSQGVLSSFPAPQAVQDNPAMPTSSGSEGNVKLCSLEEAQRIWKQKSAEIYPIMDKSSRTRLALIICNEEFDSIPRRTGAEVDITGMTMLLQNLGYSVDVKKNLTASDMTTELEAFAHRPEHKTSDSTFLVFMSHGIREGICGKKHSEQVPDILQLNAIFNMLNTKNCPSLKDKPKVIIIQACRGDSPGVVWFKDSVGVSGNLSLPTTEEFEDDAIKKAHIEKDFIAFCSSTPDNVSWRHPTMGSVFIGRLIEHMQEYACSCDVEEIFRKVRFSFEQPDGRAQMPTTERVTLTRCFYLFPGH

[3] = target: T2, Caspase-3 (Homo sapiens, UniProt P42574); experiment: Inhibitory activity towards CASP3 using fluorogenic substrates following an incubation for over 30 min at 37 degree C
T2 sequence (P42574 whole entry): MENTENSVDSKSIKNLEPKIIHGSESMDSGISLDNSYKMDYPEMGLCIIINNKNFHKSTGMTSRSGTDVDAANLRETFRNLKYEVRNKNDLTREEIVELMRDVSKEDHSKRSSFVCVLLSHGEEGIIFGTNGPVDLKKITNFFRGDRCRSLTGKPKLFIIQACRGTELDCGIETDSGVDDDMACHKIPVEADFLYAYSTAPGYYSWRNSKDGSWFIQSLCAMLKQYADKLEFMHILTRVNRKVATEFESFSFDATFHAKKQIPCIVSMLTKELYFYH

[4] = target: Caspase-8 (Homo sapiens, UniProt Q14790); experiment: Inhibitory activity towards CASP8 using fluorogenic substrates following an incubation for over 30 min at 37 degree C
Caspase-8, sequence (Q14790 217-374 limits assumed): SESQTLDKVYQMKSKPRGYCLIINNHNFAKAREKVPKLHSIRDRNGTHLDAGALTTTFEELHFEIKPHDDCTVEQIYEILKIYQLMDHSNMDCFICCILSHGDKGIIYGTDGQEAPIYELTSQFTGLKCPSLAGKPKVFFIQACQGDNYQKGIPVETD
Caspase-8, sequence (Q14790 385-479 limits assumed): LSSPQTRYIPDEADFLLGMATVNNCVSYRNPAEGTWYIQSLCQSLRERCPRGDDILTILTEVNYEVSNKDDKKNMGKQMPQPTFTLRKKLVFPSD

SMILES	IC50 [1] [nM]	IC50 [2] [nM]	IC50 [3] [nM]	IC50 [4] [nM]
O=C1C[C@H](NC(=O)[C@@H]2CCc3nc4cc(-c5ccccc5)nc-4c(O)n32)C(O)O1 (some centres undefined)	1060	264	10000	3050
O=C1C[C@H](NC(=O)[C@@H]2CCc3nc4cc(-c5ccccc5Cl)nc-4c(O)n32)C(O)O1 (some centres undefined)	252	14	1840	336
O=C1C[C@H](NC(=O)[C@@H]2CCc3nc4ccccc4c(=O)n32)C(O)O1 (some centres undefined)	10000	4580	10000	10000
CC(C)(C)c1cc2nc3n(c(O)c-2n1)[C@H](C(=O)N[C@H]1CC(=O)OC1O)CC3 (some centres undefined)	975	421	2290	7540
O=C1C[C@H](NC(=O)[C@@H]2CCc3nc4cc(-c5ccc(Cl)cc5)nc-4c(O)n32)C(O)O1 (some centres undefined)	830	97	10000	4810
O=C1C[C@H](NC(=O)[C@@H]2CCc3nc4cc(-c5cccc(Cl)c5)nc-4c(O)n32)C(O)O1 (some centres undefined)	529	55	4390	1820
